Target: T1, OB-R (Homo sapiens, UniProt P48357)
T1 construct: After confirming via Western that the primary EEC and ESC and endometrial cell lines utilized herein had OB-R; endogenous in cells; host or cells: primary human EEC and ESC; Ishikawa (ECACC 9832301) and HES cell lines
T1 sequence (P48357 22-1165): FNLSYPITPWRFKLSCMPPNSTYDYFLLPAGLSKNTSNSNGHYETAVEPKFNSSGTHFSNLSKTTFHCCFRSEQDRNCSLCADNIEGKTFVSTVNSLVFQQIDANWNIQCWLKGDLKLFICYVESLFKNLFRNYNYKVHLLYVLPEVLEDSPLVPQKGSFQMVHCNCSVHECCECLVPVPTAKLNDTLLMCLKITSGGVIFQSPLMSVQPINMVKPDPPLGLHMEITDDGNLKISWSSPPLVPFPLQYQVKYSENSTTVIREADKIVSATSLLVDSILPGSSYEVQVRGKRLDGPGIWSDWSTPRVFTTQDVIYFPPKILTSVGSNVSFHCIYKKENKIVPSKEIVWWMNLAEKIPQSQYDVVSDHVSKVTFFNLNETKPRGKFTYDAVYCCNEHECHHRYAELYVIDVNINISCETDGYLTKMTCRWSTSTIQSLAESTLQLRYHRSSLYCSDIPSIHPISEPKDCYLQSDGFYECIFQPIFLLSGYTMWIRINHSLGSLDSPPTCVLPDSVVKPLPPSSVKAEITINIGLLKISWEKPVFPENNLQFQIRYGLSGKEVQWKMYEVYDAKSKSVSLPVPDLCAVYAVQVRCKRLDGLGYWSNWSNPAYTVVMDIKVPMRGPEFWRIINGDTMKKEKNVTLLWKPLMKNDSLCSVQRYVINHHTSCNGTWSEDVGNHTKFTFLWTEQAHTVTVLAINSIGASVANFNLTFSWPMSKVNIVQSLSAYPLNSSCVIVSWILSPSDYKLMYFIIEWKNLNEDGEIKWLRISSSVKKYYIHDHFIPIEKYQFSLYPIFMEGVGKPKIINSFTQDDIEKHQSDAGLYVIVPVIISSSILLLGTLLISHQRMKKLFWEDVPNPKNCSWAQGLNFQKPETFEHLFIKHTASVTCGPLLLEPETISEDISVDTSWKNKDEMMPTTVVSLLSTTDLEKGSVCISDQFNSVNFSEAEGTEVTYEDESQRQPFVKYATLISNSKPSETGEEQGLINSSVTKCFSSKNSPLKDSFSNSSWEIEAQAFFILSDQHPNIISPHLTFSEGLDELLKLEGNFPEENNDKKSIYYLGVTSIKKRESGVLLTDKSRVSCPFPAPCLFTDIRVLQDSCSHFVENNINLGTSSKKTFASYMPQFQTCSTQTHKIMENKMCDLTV
Assay: IL-1R tl levels in human endometrial epithelial cells (Western blot)
Type: cell-based
Conditions: EEC cultures
Method: Primary human endometrial cells (ESC and EEC) were cultured for 5-9 days in DMEM-F12 medium containing 5% fetal bovine serum (FBS), 5 μg/ml insulin, 1% amphopthericin B, 100 μg/ml streptomycin and 100 U/ml penicillin until they were 80% confluent. Two types of endometrial epithelial cell lines, HES (originally derived from a benign proliferative endometrium) and Ishikawa (human endometrial epithelial adenocarcinoma, ECACC 9832301, Wiltshire, England) were cultured under the same conditions described above. The cells were washed twice with 100 mM phosphate saline buffer (PBS), pH 7.2 and cultured for additional 2 days in the same medium but without FBS (basal medium). Cells were washed as described before and cultured in basal medium containing leptin (0, 3, 10 or 62 nM) or IL-1β (0.6, 3 and 10 nM). […]
Endometrial cells were washed with ice-cold PBS and lysed by homogenization on ice with lysis buffer A [[…] Tris, pH 7.4, containing 137 nM NaCl, 2 mM EDTA, 10% glycerol, 50 mM β-glycerophosphate, 1% Nonidet P-40 and a mixture of proteases and phosphatase inhibitors composed of 100 μM antipain, 0.1 mg/ml trypsin inhibitor, protease inhibitor cocktail 1:50 (Sigma), 50 nM NaF, 2 mM phenyl-methylsulfonyl fluoride, and 2 mM sodium orthovanadate]. […] Protein concentrations were determined using the Bradford protein assay (BioRad Laboratories Inc., Hercules, Calif.). […]

Row | effect on leptin-induced IL-1R tl levels | IL-1R tl levels after leptin | Substance
1 | inhibited the leptin-induced effects |  | SRNVIQISNDLENLRDLLHVLAFSKS [LPA-2, 26 amino acid peptide, residues 70-95 of helix III of the human leptin molecule; leptin peptide antagonist]
2 |  | increase the levels of IL-1R tl | leptin: human recombinant leptin (R&D Systems), OB-R ligand used as stimulus

— patent US8058228B2, “Leptin peptide antagonists” (Boston Biomedical Research Institute, priority 2004, dated 2011)
